# Experimental data published in paper PMC5706701, “Development of a homogenous high-throughput assay for inositol hexakisphosphate kinase 1 activity” (PLoS ONE, 2017).
# Several values for one entry are separate records, joined by “and”; a condition that tells them apart may be missing. Equal values may be shown once. Where a name gives a salt, the structure may show the parent alone. Read-outs that look alike come from different tables or passages of the source.
# Molecular target: T1, Human IP6K1 (Homo sapiens, UniProt Q92551)
# T1 construct: GST (N, cleaved yes); made in house; host or cells: C43 E. coli, pGEX-6P-2
# Experiment: IP6K1 high-throughput screen of the Sigma LOPAC (ADP-Glo Max, single point);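 further: final compound concentration 10µM in 5% DMSO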
# Assay type: biochemical
# [1] = Sigma LOPAC single-point screen, ADP-Glo Max raw signal per well
# [2] = Sigma LOPAC single-point screen, Z-score from plate average and StDev
# [3] = LOPAC single-point screen, ADP-Glo Max raw signal per well
# [4] = LOPAC single-point screen, Z-score against plate average and StDev
# [5] = LOPAC single-point screen, Z-score from raw signal with plate average and StDev
# [6] = LOPAC single-point screen, ADP-Glo Max luminescence raw signal per well
# [7] = LOPAC single-point screen, Z-score relative to plate average and StDev
# T1 sequence (Q92551 whole entry): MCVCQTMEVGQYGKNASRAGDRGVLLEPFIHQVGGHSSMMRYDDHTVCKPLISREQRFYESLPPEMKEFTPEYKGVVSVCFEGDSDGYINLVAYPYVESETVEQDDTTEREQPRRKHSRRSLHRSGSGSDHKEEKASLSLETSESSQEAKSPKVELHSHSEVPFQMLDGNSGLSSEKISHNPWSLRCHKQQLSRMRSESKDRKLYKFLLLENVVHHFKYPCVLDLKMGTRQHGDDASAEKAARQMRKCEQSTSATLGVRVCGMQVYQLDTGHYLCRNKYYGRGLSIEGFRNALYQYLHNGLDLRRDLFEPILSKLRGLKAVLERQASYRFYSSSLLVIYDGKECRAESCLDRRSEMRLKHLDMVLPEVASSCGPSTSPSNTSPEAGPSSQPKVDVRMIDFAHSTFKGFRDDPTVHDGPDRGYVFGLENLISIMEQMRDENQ
smiles,measurement,setting,value
Cl.NCCNC(=O)c1ncsc1-c1cccc(F)c1 [Ro 41-1049 hydrochloride],Raw Signal,[1],60989
same,Z-score,[2],0.9646
COc1ccc(C2CNC(=O)C2)cc1OC1CCCC1 (stereo not drawn) [Rolipram],Raw Signal,[3],57545
same,Z-score,[4],0.2955
CCCN(CCC)CCc1cccc2c1CC(=O)N2 [Ropinirole hydrochloride],Raw Signal,[3],53968
same,Z-score,[5],-0.3994
CC[C@H](CO)Nc1nc(NCc2ccccc2)c2ncn(C(C)C)c2n1 [Roscovitine],Raw Signal,[3],54754
same,Z-score,[5],-0.2467
C=C(C)[C@H]1Cc2c(ccc3c2O[C@@H]2COc4cc(OC)c(OC)cc4[C@@H]2C3=O)O1 [Rotenone],Raw Signal,[1],59768
same,Z-score,[2],0.7274
CC(=O)c1c(O)c(C)c(O)c(Cc2c(O)c3c(c(C(=O)/C=C/c4ccccc4)c2O)OC(C)(C)C=C3)c1O [Rottlerin],Raw Signal,[3],55469
same,Z-score,[5],-0.1078
CCN(CC)CC.Nc1ncnc2c1ncn2C1OC2COP(O)(=S)O[C@@H]2[C@@H]1O (stereo partly drawn) [Rp-cAMPS triethylamine],Raw Signal,,55695
same,Z-score,,-0.3907
O=c1c2ccccc2nc2n1CCc1c-2[nH]c2ccccc12 [Rutaecarpine],Raw Signal,[3],54118
same,Z-score,[5],-0.3703
N.N.N.N.N.N.N.N.N.N.N.N.N.N.[Cl-].[Cl-].[Cl-].[Cl-].[Cl-].[Cl-].[O-2].[O-2].[Ru+3].[Ru+3].[Ru+4] [Ruthenium red],Raw Signal,[6],52989
same,Z-score,[7],-0.5896
CC(C)Cc1ccc([C@H](C)C(=O)O)cc1 [S(+)-Ibuprofen],Raw Signal,[3],55445
same,Z-score,[4],0.1767
CC(C)NC[C@@H](O)c1ccc(O)c(O)c1.O=C(O)C(O)C(O)C(=O)O [S(+)-Isoproterenol (+)-bitartrate],Raw Signal,[3],55551
same,Z-score,[4],0.1945
"CCCN1CCO[C@@H]2c3cc(O)ccc3OC[C@H]21.Cl [S(+)-PD 128,907 hydrochloride]",Raw Signal,[3],56406
same,Z-score,[4],0.07425
CC(C)NC[C@H](O)COc1ccc(CC(N)=O)cc1 [S(-)-Atenolol],Raw Signal,[3],56960
same,Z-score,[5],-0.1679
CCN1CCC[C@H]1CNC(=O)c1c(OC)ccc(I)c1O [S(-)-IBZM],Raw Signal,[6],51122
same,Z-score,[7],-0.5497
CC(C)NCC(O)COc1cccc2[nH]ccc12 (stereo not drawn) [S(-)-Pindolol],Raw Signal,[6],52829 and 52276
CC(C)(C)NC[C@H](O)COc1nsnc1N1CCOCC1.O=C(O)/C=C\C(=O)O [S(-)-Timolol maleate],Raw Signal,[3],57221
same,Z-score,[4],0.2326
N[C@@H](Cn1ccc(=O)[nH]c1=O)C(=O)O [S(-)-Willardiine],Raw Signal,[3],55281
same,Z-score,[5],-0.1443
Brc1ccc([C@H]2CN3CCSC3=N2)cc1.O=C(O)C(=O)O [S(-)-p-Bromotetramisole oxalate],Raw Signal,[1],61891
same,Z-score,[2],0.7006
N[C@@H](Cn1cc(I)c(=O)[nH]c1=O)C(=O)O [S-5-Iodowillardiine],Raw Signal,[3],55016
same,Z-score,[5],-0.1958
Nc1nc(SCc2ccc([N+](=O)[O-])cc2)c2ncn([C@@H]3O[C@H](CO)[C@@H](O)[C@H]3O)c2n1 [S-(4-Nitrobenzyl)-6-thioguanosine],Raw Signal,[1],63053
same,Z-score,[2],0.9053
O=[N+]([O-])c1ccc(CSc2ncnc3c2ncn3[C@@H]2O[C@H](CO)[C@@H](O)[C@H]2O)cc1 [S-(4-Nitrobenzyl)-6-thioinosine],Raw Signal,[6],50827
same,Z-score,[7],-0.5993
CNCC[C@H](Oc1ccc(C(F)(F)F)cc1)c1ccccc1.Cl [S-(+)-Fluoxetine hydrochloride],Raw Signal,[1],58446
same,Z-score,[2],0.6659
C[C@@](Cc1ccc(O)c(O)c1)(NN)C(=O)O [S-(-)-Carbidopa],Raw Signal,[3],55065
same,Z-score,[4],-0.02072
CCc1cc(Cl)c(O)c(C(=O)NC[C@@H]2CCCN2CC)c1OC.Cl [S-(-)-Eticlopride hydrochloride],Raw Signal,[6],63565
same,Z-score,"LOPAC single-point screen, Z-score from plate average and StDev",1.706
[N-]=[N+]=Nc1ccc(C(=O)CSC[C@H](NC(=O)CC[C@H](N)C(=O)O)C(=O)NCC(=O)O)cc1 [S-(p-Azidophenacyl)glutathione],Raw Signal,[3],57217
same,Z-score,[5],-0.1226
Br.CCSC(=N)N [S-Ethylisothiourea hydrobromide],Raw Signal,[3],55596
same,Z-score,[4],0.08712
CSC(N)=NCCC[C@H](N)C(=O)O [S-Methyl-L-thiocitrulline acetate],Raw Signal,[3],53034
same,Z-score,[5],-0.2284
CSC(=N)N.CSC(=N)N.O=S(=O)(O)O [S-Methylisothiourea hemisulfate],Raw Signal,[3],51759
same,Z-score,[5],-0.4427
N[C@@H](CCC(=O)N[C@@H](CSN=O)C(=O)NCC(=O)O)C(=O)O [S-Nitrosoglutathione],Raw Signal,[3],53456
same,Z-score,[5],-0.1575
Cl.Cn1ccc2cc(NC(=O)Nc3cccnc3)ccc21 [SB 200646 hydrochloride],Raw Signal,[3],55663
same,Z-score,[5],-0.3963
Oc1ccc(-c2nc(-c3ccncc3)c(-c3ccc(F)cc3)[nH]2)cc1 [SB 202190],Raw Signal,[3],58086
same,Z-score,[4],0.03045
O=C(OCCN1CCCCC1)c1c[nH]c2ccccc12 [SB 203186],Raw Signal,[6],49486
same,Z-score,[7],-1.154
CCCCN1CCC(COC(=O)c2cc(Cl)c(N)c3c2OCCO3)CC1.Cl [SB 204070 hydrochloride],Raw Signal,[1],60689
same,Z-score,[2],0.9064
Cc1cc(NC(=O)Nc2ccc3c(ccn3C)c2)sn1 [SB 204741],Raw Signal,[3],55947
same,Z-score,[5],-0.3463
CC#CCOC(=O)c1c(C)nc2sc3c(c2c1N)CCC(O)C3 (stereo not drawn) [SB 205384],Raw Signal,[1],57931
same,Z-score,[2],0.3705
Cn1ccc2cc3c(cc21)CCN3C(=O)Nc1cccnc1 [SB 206553 hydrochloride],Raw Signal,[3],56981
same,Z-score,[4],0.186
Cn1cc(C2=C(c3ccc(Cl)cc3Cl)C(=O)NC2=O)c2ccccc21 [SB 216763],Raw Signal,[1],56670
same,Z-score,[2],0.3825
COC(=O)[C@H](NC(=O)c1cc(-c2ccccc2)nc2ccccc12)c1ccccc1 [SB 218795],Raw Signal,[1],57840
same,Z-score,[2],0.5429
CC[C@H](NC(=O)c1c(C)c(-c2ccccc2)nc2ccccc12)c1ccccc1 [SB 222200],Raw Signal,[3],57369
same,Z-score,[5],-0.09583
Cc1nc(-c2ccc(-c3ccc(C(=O)N4CCc5cc6c(cc54)C4(CCN(C)CC4)CO6)cc3)c(C)c2)no1.Cl [SB 224289 hydrochloride],Raw Signal,[1],58823
same,Z-score,[2],0.5438
COc1cc2c(cc1C(F)(F)F)N(C(=O)Nc1cc(F)cc(-c3cccnc3)c1)CC2 [SB 228357],Raw Signal,[1],58844
same,Z-score,[2],0.7468
CC1CCN(CC[C@H]2CCCN2S(=O)(=O)c2cccc(O)c2)CC1.Cl [SB 269970 hydrochloride],Raw Signal,[3],57058
same,Z-score,[4],0.2009
COc1cccc(NC(=O)/C=C/c2ccc(Cl)cc2)c1 [SB-366791],Raw Signal,[6],52546
same,Z-score,[7],-0.6757
CC(=O)NNC(=O)N1Cc2ccccc2Oc2ccc(Cl)cc21 [SC 19220],Raw Signal,[1],57783
same,Z-score,[2],0.3418
Cc1nc2c(OCc3ccccc3)cccn2c1CC#N [SCH-28080],Raw Signal,[6],49264
same,Z-score,[7],-1.199
Br.CN=c1nc(-c2ccccc2)n(-c2ccccc2)s1 [SCH-202676 hydrobromide],Raw Signal,[6],51247
same,Z-score,[7],-0.928
"CCN(CC)CCOC(=O)c1cc(Cl)c(N)cc1OC.Cl [SDZ-205,557 hydrochloride]",Raw Signal,[3],56215
same,Z-score,[4],0.03715
Cc1ccc(O)c(N=Nc2ccccc2)n1 [SIB 1757],Raw Signal,[6],46352
same,Z-score,[7],-1.879
Cc1cccc(/C=C/c2ccccc2)n1 [SIB 1893],Raw Signal,[3],55669
same,Z-score,[4],-0.06893
Br.CN1CCc2cc(O)c(O)cc2C(c2ccccc2)C1 (stereo not drawn) [SKF 75670 hydrobromide],Raw Signal,[3],56113
same,Z-score,[4],0.01733
Br.Cc1cccc(C2CN(C)CCc3c2cc(O)c(O)c3Cl)c1 (stereo not drawn) [SKF 83959 hydrobromide],Raw Signal,[6],52693
same,Z-score,[7],-0.6471
CN1CCc2cccc(Cl)c2CC1 [SKF 86466],Raw Signal,[3],54503
same,Z-score,[5],-0.2955
Br.Oc1ccc(C2CNCc3sccc32)cc1O (stereo not drawn) [SKF 89626],Raw Signal,[3],56262
same,Z-score,[4],0.04628
